Data on 3 molecules can be found in patent US5519055A, “Substituted kynurenines and process for their preparation” (University of Maryland at Baltimore, priority 1993, dated 1996).

The target of data set [1] is Kynurenine Aminotransferase (KAT). In words: Determination of KAT activity inhibition in rat brain homogenate. Format: biochemical. The settings on record: 2 μM [3H]KYN, 2 h at 37° C., pH 8.0, read-out: ID50 (inhibition of KAT enzyme activity). The text has this: (§1) Compounds which act as KAT inhibitors may be identified using standard test, for example, measuring their ability to inhibit KAT activity in rat brain homogenate as described, for example, in J. Neurochem., 57, 533-540 (1991) or their inhibitory effect on Kynurenic Acid (KYNA) production by rat brain slices as described, for example, in J. Neurochem., 52, 1629-1636 (1989). KAT catalyzes the biosynthesis of KYNA from Kynurenine (KYN): [drawing 2] and it is singularly responsible for the regulation of extracellular KYNA concentrations in the brain (J. Neurochem., 57, 533-540, 1991).
A) Determination of KAT activity inhibition in rat brain homogenate
KAT was measured as described in detail by Okuno et al. (Measurement of rat brain kynurenine aminotransferase at physiological kynurenine concentrations, J. Neurochem., 57, 533-540, 1991).
Briefly, animals were killed by decapitation and the brain tissue was homogenized (1:5 v/w in 5 mM Trisacetate buffer, pH 8.0, containing 10 mM 2-mercaptoethanol and 50 μM pyridoxal 5'-phosphate) and incubated for 2 h at 37° C. in the presence of 2 μM [^3 H]KYN (30 nCi), 1 mM 2-oxoglutarate and 70 μM pyridoxal 5'-phosphate in 150 mM Tris-acetate buffer, pH 8.0. […]
Newly synthesized [^3 H]KYNA was separated from [^3 H]KYN on a Dowex 50 W cation-exchange column and quantitated by liquid scintillation spectrometry. […]

For data set [2], the system named is KYNA production by rat tissue slices. In words: Determination of inhibition of KYNA production by rat tissue slices (cerebral cortex). It counts as cell-based. The following applies: 50 μM L-KYN, 2 h at 37° C., pH 7.4.
Excerpt: as §1
B) Determination of inhibition of KYNA production by rat tissue slices
Routinely, slices (base 1×1 mm; weight ≈1.5 mg/slice) from the cerebral cortex were separated on ice and transferred to culture wells (10 slices/well) containing 1 ml of oxygenated Krebs-Ringer buffer (NaCl, 118.5 mM; KCl, 4.75 mM; CaCl 2, 1.77 mM; MgSO4, 1.18 mM; NaH2 PO4, 12.9 mM; NaH2 PO4, 3 mM; glucose, 5mM; pH 7.4). Subsequently, the tissue was preincubated for 10 min at 37° C. and incubated further for 2 h at 37° C., in the presence of 50 μM L-KYN in an oxygenated chamber, on a shaking water bath. Compounds of the present invention were included in the incubation mixture as needed. Following incubation, the culture wells were immediately placed on ice, and the slices were rapidly separated from the incubation medium.
For KYNA determination, 1 ml samples of the incubation medium were immersed in a boiling water bath for 10 min, and the precipitated proteins were removed by centrifugation (8,730× g, 10 min). The supernatants were diluted (1:1, v/v) with 0.2M HCl and applied to Dowex 50 W (hydrogen form, Sigma) cation-exchange columns (0.5×2 cm). Subsequently, the columns were washed with 1 ml of 0.1M HCl and 1 ml of water, and the fraction containing KYNA was eluted with 2 ml of water. The eluates were applied to a 3-μm C18 HPLC column (100×3.2 internal diameter, Bioanalytical Systems, West Lafayette, Ind., U.S.A.), and KYNA was isocratically eluted with a mobile phase containing 50 mM ammonium acetate and 5% methanol at a flow rate of 0.5 ml/min. Under these conditions, the retention time of KYNA was ≈7 min.
Data were recorded and calculated with a Hewlett-Packard 3390A integrator connected to a model 160 UV absorbance detector (Beckman Instruments, Berkeley, Calif., U.S.A.) set at 340 nm.
In this assay, (D,L)-2-amino-4-(2-amino-5-chlorophenyl)-4-oxo butyric acid, also known as D,L-5-chloro-kynurenine, was tested with the following results: […]

Data set [3] has as its target T1, KAT (partially purified enzyme preparation) (Rattus norvegicus, UniProt Q08415).
T1 construct: a preparation of partially purified enzyme in a total volume of 0.1 ml; from tissue
T1 sequence (Q08415 1-423): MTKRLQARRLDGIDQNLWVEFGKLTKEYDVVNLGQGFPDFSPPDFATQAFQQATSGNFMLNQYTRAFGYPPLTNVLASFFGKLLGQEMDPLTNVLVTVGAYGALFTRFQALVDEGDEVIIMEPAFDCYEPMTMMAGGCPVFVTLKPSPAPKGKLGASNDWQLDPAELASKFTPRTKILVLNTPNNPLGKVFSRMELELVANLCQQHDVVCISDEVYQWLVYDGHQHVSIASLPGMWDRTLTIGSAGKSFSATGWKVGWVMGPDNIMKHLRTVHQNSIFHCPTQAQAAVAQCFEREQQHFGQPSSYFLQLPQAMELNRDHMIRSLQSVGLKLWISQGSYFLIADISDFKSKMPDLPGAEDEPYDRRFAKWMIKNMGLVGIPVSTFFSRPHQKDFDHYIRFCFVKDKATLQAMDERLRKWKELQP
Kind of data set: Kinetic analysis of KAT inhibitors using a partially purified enzyme preparation. It counts as biochemical. The following applies: KYN varied 2 μM to 2 mM, 1 mM pyruvate, pH 8.0, 2 h at 37° C., double reciprocal plots. As to the method: C) Kinetic analysis of KAT inhibitors using a partially purified enzyme preparation (Brain Research, 534, 37-44 (9)
The reaction mixture contained [^3 H]KYN (30 nCi), diluted with unlabelled KYN to yield a final concentration of 2 μM, 1 mM pyruvate, 70 μM pyridoxal 5'-phosphate, 150 mM Tris-acetate buffer, pH 8.0, and a preparation of partially purified enzyme in a total volume of 0.1 ml. Test compounds were included in the incubation mixture as needed. The reaction was started by the addition of pyruvate. After incubation for 2 h at 37° C., the reaction was terminated by the addition of 14 μl of 50% (w/w) trichloroacetic acid. Subsequently, 1 ml of 0.1M HCl was added and denaturated protein was removed by a 4-min centrifugation in a Beckman 52 B microfuge. 1 ml of the resulting supernatant was applied to a Dowex 50 W column (0.5×1.0 cm; H^+ form) and washed with 1 ml of 0.1M HCl, followed by 1 ml of distilled water. [^3 H]KYNA was eluted with 2 ml of distilled water and quantitated by liquid scintillation spectrometry. Enzyme measurements were performed in triplicate samples. Blanks were obtained by using an enzyme preparation which had been heat-deactivated for 10 min in a boiling water bath. […] Double reciprocal plots were constructed and lines of best fit were determined by linear regression analysis.

For data set [4], the system named is glycine modulatory site of the N-methyl-D-aspartate (NMDA) receptor complex. The following applies: J. Neurochem., 52, 1319-1328, 1989; cited from earlier work.
The test system of data set [5] is excitatory amino acid (EAA) receptor. The settings on record: J. Neurochem., 52, 1319-1328, 1989; cited from earlier work.
Substrate in data set [6]: Nc1ccccc1C(=O)C[C@H](N)C(=O)O
Kind of data set: purified protein, by the assay type. The settings on record: other: substrate KYN varied 2 μM to 2 mM, 1 mM pyruvate, pH 8.0, 2 h at 37° C., double reciprocal plots.

With `Nc1ccc(Cl)cc1C(=O)CC(N)C(=O)O` (racemic) [Example 3, 2-amino-4-(2-amino-5-chlorophenyl)-4-oxo-butyric acid], the IC50 in data set [1] turned out to be 78 µM. In addition, the inhibition at 25 µM in data set [2] (25 μM compound) amounted to 33%. Also, in data set [2] (50 μM compound), the inhibition at 50 µM is 39%. In addition, in data set [2] (100 μM compound), the inhibition at 100 µM is 56%. The same molecule showed an inhibition at 250 µM in data set [2] (250 μM compound) of 66%. This molecule yielded a Ki in data set [3] of 88 µM.
Turning to `O=C(O)c1cc(=O)c2ccccc2[nH]1` [KYNA, Kynurenic Acid], the “affinity to the glycine modulatory site of the NMDA receptor complex” value in data set [4] was “particularly high affinity”. For the same molecule, the “excitatory amino acid (EAA) receptor antagonism” value in data set [5] was “effective excitatory amino acid (EAA) receptor antagonist”.

B1: KAT (partially purified enzyme preparation) (Rattus norvegicus) (protein)
chain: MTKRLQARRLDGIDQNLWVEFGKLTKEYDVVNLGQGFPDFSPPDFATQAFQQATSGNFMLNQYTRAFGYPPLTNVLASFFGKLLGQEMDPLTNVLVTVGAYGALFTRFQALVDEGDEVIIMEPAFDCYEPMTMMAGGCPVFVTLKPSPAPKGKLGASNDWQLDPAELASKFTPRTKILVLNTPNNPLGKVFSRMELELVANLCQQHDVVCISDEVYQWLVYDGHQHVSIASLPGMWDRTLTIGSAGKSFSATGWKVGWVMGPDNIMKHLRTVHQNSIFHCPTQAQAAVAQCFEREQQHFGQPSSYFLQLPQAMELNRDHMIRSLQSVGLKLWISQGSYFLIADISDFKSKMPDLPGAEDEPYDRRFAKWMIKNMGLVGIPVSTFFSRPHQKDFDHYIRFCFVKDKATLQAMDERLRKWKELQP
As to B1, the Km in data set [6] is 369 µM.
